The target in assay [1] is T1, PXL2LRR (extracellular LRR domain protein of PXL2) (Arabidopsis thaliana, UniProt Q9M0G7).
T1 construct: The LRR domain of PXL2 (residues 1-633, PXL2LRR) from Arabidopsis with an engineered; 6xHis (C); made in house; host or cells: High Five insect cells (baculovirus, pFastBac 1)
The assay is described as follows: biochemical. Type of assay: binding.
Protocol: (C) Measurement of the binding affinity between PXL2^LRR and CLE42 by ITC. Top panel: twenty injections of CLE42 solution were titrated into PXL2^LRR in the ITC cell. The area of each injection peak corresponds to the total heat released for that injection. Bottom panel: the binding isotherm for PXL2^LRR-CLE42 interaction. The integrated heat is plotted against the molar ratio between CLE42 and PXL2^LRR. […] The assay was performed as described in (C).

Assay [2] concerns the target extracellular LRR domain protein of PXL2 (PXL2^LRR) (Arabidopsis thaliana). The assay is described as follows: ITC; twenty injections of peptide solution titrated into PXL2^LRR in the ITC cell.

Where a SMILES comes first, the peptide text is derived from it. Where no end group is shown, it is not given here. [ ]: non-standard residue; d: D form. Hyp = O=C(O)[C@@H]1C[C@@H](O)CN1

T1 sequence (Q9M0G7 24-633): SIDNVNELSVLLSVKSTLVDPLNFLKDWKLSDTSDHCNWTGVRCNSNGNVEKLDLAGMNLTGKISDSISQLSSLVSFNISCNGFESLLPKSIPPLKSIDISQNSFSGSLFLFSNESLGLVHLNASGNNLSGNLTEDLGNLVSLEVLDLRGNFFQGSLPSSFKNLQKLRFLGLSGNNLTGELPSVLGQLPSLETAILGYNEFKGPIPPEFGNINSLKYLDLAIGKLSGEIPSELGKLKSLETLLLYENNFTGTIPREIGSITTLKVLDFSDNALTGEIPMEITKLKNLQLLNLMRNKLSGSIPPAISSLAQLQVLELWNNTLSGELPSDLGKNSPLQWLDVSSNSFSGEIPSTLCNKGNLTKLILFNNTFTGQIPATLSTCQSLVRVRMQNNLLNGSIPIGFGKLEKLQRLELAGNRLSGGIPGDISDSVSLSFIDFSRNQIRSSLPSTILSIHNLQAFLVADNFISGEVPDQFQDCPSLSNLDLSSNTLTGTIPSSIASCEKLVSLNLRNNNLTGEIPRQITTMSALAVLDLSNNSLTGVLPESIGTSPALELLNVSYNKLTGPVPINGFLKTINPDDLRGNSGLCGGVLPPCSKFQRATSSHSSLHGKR

Turning to `CC[C@H](C)[C@H](NC(=O)[C@@H]1CCCN1C(=O)[C@H](CC(N)=O)NC(=O)[C@@H]1C[C@@H](O)CN1C(=O)CNC(=O)[C@H](CO)NC(=O)[C@@H]1C[C@@H](O)CN1C(=O)[C@@H](NC(=O)[C@H](CCC(=O)O)NC(=O)[C@@H](N)Cc1c[nH]cn1)C(C)C)C(=O)N[C@@H](CO)C(=O)N[C@@H](CC(N)=O)C(=O)O` [CLE41, His-Glu-Val-Hyp-Ser-Gly-Hyp-Asn-Pro-Ile-Ser-Asn] (H-HEV[Hyp]SG[Hyp]NPISN-OH), in assay [1], the Kd was found to be 10 µM. On the same count and under the same terms, the same measure for `CC[C@H](C)[C@H](NC(=O)[C@@H]1CCCN1C(=O)[C@H](CC(N)=O)NC(=O)[C@@H]1C[C@@H](O)CN1C(=O)CNC(=O)[C@H](CO)NC(=O)[C@@H]1C[C@@H](O)CN1C(=O)[C@@H](NC(=O)CNC(=O)[C@@H](N)Cc1c[nH]cn1)C(C)C)C(=O)N[C@@H](CO)C(=O)N[C@@H](CC(N)=O)C(=O)O` [CLE42, His-Gly-Val-Hyp-Ser-Gly-Hyp-Asn-Pro-Ile-Ser-Asn] (H-HGV[Hyp]SG[Hyp]NPISN-OH): 2.75 µM. Consider “RLV[Hyp]SG[Hyp]NPLHH [CLE13, negative control]”, for which, in assay [1] (ITC200, 25 °C, 10 mM Bis-Tris pH 6.0, 100 mM NaCl, approximately 0.5 mM peptide, 0.05 mM PXL2LRR, repeated at least three times, negative control), the “interaction with PXL2LRR by ITC” value is on record as “no detectable interaction”. As for HGV[Hyp]SG[Hyp]NPISN [CLE42], the Kd in assay [2] was 2.75 µM. The same measure, in the same setting: for HEV[Hyp]SG[Hyp]NPISN [CLE41/44 or TDIF (tracheary elements differentiation inhibitory factor)] the value was 10 µM.

Values taken from PMC5546936, “CLE42 binding induces PXL2 interaction with SERK2” (Protein & Cell, 2017).
